Results as given in patent US10675260B2, “Methods and pharmaceutical compositions for preventing or treating immunoinflammatory dermal disorders” (TWi Biotechnology, Inc., priority 2017, dated 2020).

Legend:
HaCaT cells = type: cell-based; details: 48 h, MTT
Procedure: HaCaT cells (CLS Cell Lines Service, Germany) were cultured in Dulbecco's modified eagle medium (DMEM) medium supplemented with 4.5 g/L glucose, 2 mM L-glutamine and 10% fetal bovine serum. Cells were seeded on 24- or 12-well plates and grown to 80% confluence for the following assays.
Exponentially growing cells of passage #3-6 (3000 cells/well in 100 μl medium) were plated in 96-well plates overnight to allow cell attachment (80% confluency) and then exposed to different concentrations of diacerein (0.1, 1, 10 μM) or berberine (0.1, 1, 10 μM) or clobetasol propionate (0.1, 1, 10 μM), and either 2 mg/mL of Healthy-IgG BP-IgG or Specific-IgG at 37° C. for 48 h.
Following drug treatment, the cell culture media were gently removed. Cells were then gently washed three times with warm medium to remove any de-attached and dead cells. Cells were incubated with MTT reagent in cell culture medium at a final concentration of 1.0 mg/mL for 2 h. The quantity of formazan (presumably directly proportional to the number of viable cells) was measured by recording changes in absorbance at 570 nm using an ELISA plate reader.

IL-6 mRNA = test: Quantitation of IL-6 mRNA expression by quantitative real-time PCR; type: cell-based, human; details: BP IgG-treated HaCaT cells; 0.1, 1, 10 μM; 48 h; RT-qPCR normalized to GAPDH
Procedure: (§1) IL-6 and IL-8 messenger RNA (mRNA) levels were quantitated using quantitative real-time polymerase chain reaction (qPCR) as reported previously. BP IgG-treated HaCaT cells were cultured with or without diacerein or berberine or clobetasol propionate for 48 h. Total RNA was isolated from cultured HaCaT cells using TRIzol reagent (LifeTechnologies) according to the manufacturer's instruction. Complementary DNA (cDNA) was reverse-transcribed from isolated RNA by incubating 1 μg of RNA with the RevertAid First Strand cDNA Synthesis Kit (Thermo Scientific) following the manufacturer's instructions. Quantitative RT-PCR was performed in a Mastercycler (Eppendorf) using SYBR® Select Master Mix (Life Technologies). PCR mixtures contained 0.5 μM of each forward and reverse primers. Each reaction mixture was subjected to 2 min at 50° C. and 2 min at 95° C. followed by 40 cycles with 15 seconds at 95° C. and 1 min at 60° C. Data were normalized to the housekeeping gene glyceraldehyde-3-phosphate dehydrogenase (GAPDH). The primers used in RT-PCR were as follows: IL-8 messenger RNA (mRNA), forward, 5′-ACCGGAAGGAACCATCTCAC-3′, and reverse, 5′-AAACTGCACCTTCACACAGAG-3′ and IL-6 messenger RNA (mRNA), forward, 5′-GGTACATCCTCGACGGCATCT-3′, and reverse, 5′-GTGCCTCTTTGCTGCTTTCAC-3′ and GAPDH, forward, 5′-ACAACTTTGGTATCGTGGAAGG-3′, and reverse, 5′-GCC ATC ACG CCA CAG TTT-3′.

IL-8 mRNA = test: Quantitation of IL-8 mRNA expression by quantitative real-time PCR; type: cell-based, human; details: BP IgG-treated HaCaT cells; 0.1, 1, 10 μM; 48 h; RT-qPCR normalized to GAPDH
Procedure: as §1

IL-6 = test: Pro-inflammatory cytokine measurement: IL-6 in culture supernatant by ELISA; type: cell-based, human; details: HaCaT cells treated with BP-IgG or specific anti-BP180 IgG 2 mg/mL; 0.1, 1, 10 μM; 48 h
Procedure: (§2) HaCaT cells (CLS Cell Lines Service, Germany) were cultured in Dulbecco's modified eagle medium (DMEM) medium supplemented with 4.5 g/L glucose, 2 mM L-glutamine and 10% fetal bovine serum. Cells were seeded on 24- or 12-well plates and grown to 80% confluence for the following assays. Cytokine measurement was conducted based on previous studies. Briefly, cells were incubated with medium alone or with 2 mg/mL purified BP-IgG or Specific-IgG and cultured in absence or presence of diacerein or berberine or clobetasol propionate (0.1, 1, and 10 μM) and culture supernatants were collected after 48 h of incubation, and stored for analysis at −20° C. IL-6 and IL-8 levels were analyzed in cell culture supernatants by ELISA (BD Biosciences) according to the manufacturer's instructions.

IL-8 = test: Pro-inflammatory cytokine measurement: IL-8 in culture supernatant by ELISA; type: cell-based, human; details: 48 h
Procedure: as §2

BP180 = test: Immunofluorescence study of BP180 internalization in keratinocytes treated with BP-IgG; type: cell-based, human; details: 0.1 to 10 μM, confocal microscopy
Procedure: For this BP180 internalization study, IgG purification from BP patients and cell culture treated with different IgG and drugs (diacerein or berberine) were performed according to the procedures described in Example 1. Keratinocytes grown on glass coverslips were fixed in 4% paraformaldehyde, washed thoroughly in PBS, and permeabilized in 0.1% (v/v) Triton X-100 in PBS for 10 minutes. Primary antibodies were overlaid onto the cells, and the preparations were incubated at room temperature for 1 hour. The cells on coverslips were washed with PBS, and fluorescence-conjugated secondary antibodies were applied for 1 hour at room temperature. After being washed with PBS, coverslips were mounted onto slides. The fluorescence color for cell nucleus was dark blue and BP180 was bright green. All preparations were examined by the confocal microscopy.

Structure (SMILES) | cytotoxicity to HaCaT cells (HaCaT cells; treatment at 0.1-10 μM) | IL-6 mRNA expression levels (IL-6 mRNA) | IL-8 mRNA expression levels (IL-8 mRNA) | secretion of IL-6 (IL-6) | secretion of IL-8 (IL-8; HaCaT cells treated with BP-IgG or Specific-IgG 2 mg/mL, 0.1, 1, 10 μM) | HaCaT viability in presence of IgG (HaCaT cells; 10 μM, with Healthy-IgG, BP-IgG or BP Specific-IgG) | HaCaT viability (HaCaT cells; treatment at 0.1-10 μM) [%] | secretion of IL-8 (IL-8; 0.1 μM, HaCaT cells treated with specific anti-BP180 IgG) | secretion of IL-8 (IL-8; 1 or 10 μM, HaCaT cells treated with specific anti-BP180 IgG) | membranous localization of BP180 (BP180 internalization) (BP180)
COc1ccc2cc3[n+](cc2c1OC)CCc1cc2c(cc1-3)OCO2 [berberine, 5,6-dihydro-9,10-dimethoxybenzo(g)-1,3-benzodioxolo (5,6-a) quinolizinium] | did not have significant cytotoxicity | – | – | – | – | – | – | – | – | –
CCC(=O)O[C@]1(C(=O)CCl)[C@@H](C)C[C@H]2[C@@H]3CCC4=CC(=O)C=C[C@]4(C)[C@@]3(F)[C@@H](O)C[C@@]21C [clobetasol propionate] | did not have significant cytotoxicity | significantly reduced the IL-6 and IL-8 mRNA expression levels | significantly reduced the IL-6 and IL-8 mRNA expression levels | reduced IL-6 (FIG. 1a) and IL-8 secretion (FIG. 1b) in a dose-dependent manner | reduced IL-6 (FIG. 1a) and IL-8 secretion (FIG. 1b) in a dose-dependent manner | – | – | – | – | –
CC(=O)Oc1cccc2c1C(=O)c1c(OC(C)=O)cc(C(=O)O)cc1C2=O [diacerein, 4,5-bis (acetyloxy) 9, 10-dihydro-4,5-dihydroxy-9, 10-dioxo-2-anthracenecarboxylic acid] | significant cytotoxicity | dose-dependent inhibitory effects on IL-6 mRNA expression levels | inhibitory effects on IL-8 mRNA only at 10 μM | significantly reduced secretion of IL-6 | – | still significantly reduced HaCaT viability | 50 | did not reduce the secretion of IL-8 | inhibitory effects of diacerein on IL-8 secretion were noted only at concentrations at 1 or 10 μM | membranous localization of BP180 was restored
